# Reference: PubChem BioAssay (NCI)
#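 Cells were grown in 96-well plates and exposed to each compound for 48 hours at five concentrations; endpoints were interpolated linearly between bracketing concentrations, or set to the highest concentration if not reached. TGI marks complete inhibition of growth.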
# Assays:
# Test in all cases: NCI-60 cell line screen, 48 h
# [1] = tested on: UACC-62 melanoma
# [2] = tested on: IGROV1 ovarian
# [3] = tested on: SF-268 CNS
# [4] = tested on: MOLT-4 leukemia
# [5] = tested on: NCI-H460 lung
# [6] = tested on: HCT-116 colon
# [7] = tested on: M14 melanoma
# [8] = tested on: MALME-3M melanoma
# [9] = tested on: NCI/ADR-RES ovarian
# [10] = tested on: MCF7 breast
# [11] = tested on: NCI-H226 lung
# [12] = tested on: SF-539 CNS
# [13] = tested on: HOP-92 NSCLC
# [14] = tested on: TK-10 renal
# [15] = tested on: SK-OV-3 ovarian
# [16] = tested on: HL-60(TB) leukemia
# [17] = tested on: RXF 393 renal
# [18] = tested on: OVCAR-3 ovarian
# [19] = tested on: UACC-257 melanoma
# [20] = tested on: KM12 colon
# [21] = tested on: MDA-MB-231 breast
# [22] = tested on: MDA-N
# [23] = tested on: SR leukemia
# [24] = tested on: CAKI-1 renal
# [25] = tested on: SK-MEL-2 melanoma
# [26] = tested on: SW-620 colon
# [27] = tested on: HOP-62 NSCLC
# [28] = tested on: OVCAR-8 ovarian
# [29] = tested on: SK-MEL-5 melanoma
# [30] = tested on: CCRF-CEM leukemia
# [31] = tested on: 786-0 renal
# [32] = tested on: HT29 colon
# [33] = tested on: COLO 205 colon
# [34] = tested on: OVCAR-4 ovarian
# [35] = tested on: SN12C renal
# [36] = tested on: HS 578T breast
# [37] = tested on: NCI-H23 lung
# [38] = tested on: SF-295 CNS
# [39] = tested on: ACHN renal
# [40] = tested on: SK-MEL-28 melanoma
# [41] = tested on: PC-3 prostate
# [42] = tested on: T-47D breast
# [43] = tested on: EKVX NSCLC
# [44] = tested on: DU-145 prostate
# [45] = tested on: RPMI-8226 leukemia
# [46] = tested on: OVCAR-5 ovarian
# [47] = tested on: MDA-MB-435
# [48] = tested on: K-562 leukemia
# [49] = tested on: U251 CNS
# [50] = tested on: HCT-15 colon
# [51] = tested on: A549 NSCLC
# [52] = tested on: BT-549 breast
# [53] = tested on: UO-31 renal
# [54] = tested on: HCC-2998 colon
# [55] = tested on: LOX IMVI melanoma
# [56] = tested on: SNB-19 CNS
# [57] = tested on: SNB-75 CNS
# [58] = tested on: NCI-H522 lung
# [59] = tested on: A498 renal
smiles,measurement,setting,value
Cc1cc(=O)n2nc(CCl)sc2n1,TGI,[1],46.9 µM
same,TGI,[2],37 µM
same,TGI,[3],39.5 µM
same,TGI,[4],36.3 µM
same,TGI,[5],29.5 µM
same,TGI,[6],24.9 µM
same,TGI,[7],23.4 µM
same,TGI,[8],26.4 µM
same,TGI,[9],48 µM
same,TGI,[10],28.7 µM
same,TGI,[11],34.9 µM
same,TGI,[12],34.1 µM
same,TGI,[13],28.2 µM
same,TGI,[14],23 µM
same,TGI,[15],53.2 µM
same,TGI,[16],38.2 µM
same,TGI,[17],20.8 µM
same,TGI,[18],28.4 µM
same,TGI,[19],25.2 µM
same,TGI,[20],27.4 µM
same,TGI,[21],37.5 µM
same,TGI,[22],27.7 µM
same,TGI,[23],87 µM
same,TGI,[24],23.1 µM
same,TGI,[25],28.7 µM
same,TGI,[26],37.5 µM
same,TGI,[27],40.2 µM
same,TGI,[28],35.5 µM
same,TGI,[29],23 µM
same,TGI,[30],40.8 µM
same,TGI,[31],37 µM
same,TGI,[32],30.5 µM
same,TGI,[33],33.5 µM
same,TGI,[34],32.4 µM
same,TGI,[35],35 µM
same,TGI,[36],55.9 µM
same,TGI,[37],47.1 µM
same,TGI,[38],42.9 µM
same,TGI,[39],27.5 µM
same,TGI,[40],28.6 µM
same,TGI,[41],29.8 µM
same,TGI,[42],32.3 µM
same,TGI,[43],36 µM
same,TGI,[44],40.6 µM
same,TGI,[45],50.6 µM
same,TGI,[46],28.9 µM
same,TGI,[47],26.3 µM
same,TGI,[48],37.7 µM
same,TGI,[49],20.3 µM
same,TGI,[50],27.1 µM
same,TGI,[51],35 µM
same,TGI,[52],17.5 µM
same,TGI,[53],28.8 µM
same,TGI,[54],31.1 µM
same,TGI,[55],17.1 µM
same,TGI,[56],39 µM
same,TGI,[57],28.6 µM
same,TGI,[58],20 µM
Nc1ncn2c(n1)nc1ccccc12,TGI,[1],> 100 µM
same,TGI,[2],> 100 µM
same,TGI,[3],> 100 µM
same,TGI,[4],> 100 µM
same,TGI,[5],> 100 µM
same,TGI,[6],> 100 µM
same,TGI,[7],> 100 µM
same,TGI,[8],> 100 µM
same,TGI,[9],> 100 µM
same,TGI,[10],> 100 µM
same,TGI,[11],> 100 µM
same,TGI,[12],> 100 µM
same,TGI,[13],> 100 µM
same,TGI,[14],> 100 µM
same,TGI,[15],> 100 µM
same,TGI,[16],> 100 µM
same,TGI,[17],> 100 µM
same,TGI,[19],> 100 µM
same,TGI,[20],> 100 µM
same,TGI,[21],> 100 µM
same,TGI,[22],> 100 µM
same,TGI,[23],> 100 µM
same,TGI,[24],> 100 µM
same,TGI,[25],> 100 µM
same,TGI,[26],> 100 µM
same,TGI,[28],> 100 µM
same,TGI,[29],> 100 µM
same,TGI,[30],> 100 µM
same,TGI,[31],> 100 µM
same,TGI,[32],> 100 µM
same,TGI,[33],> 100 µM
same,TGI,[59],> 100 µM
same,TGI,[34],> 100 µM
same,TGI,[35],> 100 µM
same,TGI,[36],> 100 µM
same,TGI,[37],> 100 µM
same,TGI,[38],> 100 µM
same,TGI,[39],> 100 µM
same,TGI,[40],> 100 µM
same,TGI,[41],> 100 µM
same,TGI,[42],> 100 µM
same,TGI,[43],> 100 µM
same,TGI,[44],> 100 µM
same,TGI,[45],> 100 µM
same,TGI,[46],> 100 µM
same,TGI,[47],> 100 µM
same,TGI,[48],> 100 µM
same,TGI,[49],> 100 µM
same,TGI,[50],> 100 µM
same,TGI,[51],> 100 µM
same,TGI,[52],> 100 µM
same,TGI,[53],> 100 µM
same,TGI,[56],> 100 µM
same,TGI,[57],78.9 µM
same,TGI,[58],> 100 µM
